Patent US11691980B2, “Liphagal analog and multi-targeted kinase inhibitor containing liphagal or analog thereof” (TOHOKU UNIVERSITY, priority 2017, dated 2023)

Tests used:
Format in all cases: biochemical
MST3 = molecular target: T1, MST3 (Homo sapiens, UniProt Q9Y6E0); experiment: mobility shift assay
T1 construct: purchased Carna Biosciences

SPHK1 = molecular target: T2, SPHK1 (Homo sapiens, UniProt Q9NYA1); experiment: mobility shift assay
T2 construct: purchased Carna Biosciences

IKKα = molecular target: T3, IKKα (Homo sapiens, UniProt O15111); experiment: IMAP Assay
T3 construct: purchased Carna Biosciences

CLK1 = molecular target: T4, CLK1 (Homo sapiens, UniProt P49759); experiment: mobility shift assay
T4 construct: purchased Carna Biosciences

SRPK1 = molecular target: T5, SRPK1 (Homo sapiens, UniProt Q96SB4); experiment: IMAP Assay
T5 construct: purchased Carna Biosciences

p70S6Kβ = molecular target: T6, p70S6Kβ (Homo sapiens, UniProt Q9UBS0); experiment: mobility shift assay
T6 construct: purchased Carna Biosciences

MAP2K3_Cascade = molecular target: T7, MAP2K3_Cascade (Homo sapiens, UniProt P46734); experiment: mobility shift assay
T7 construct: purchased Carna Biosciences

FAK = molecular target: T8, FAK (Homo sapiens, UniProt Q05397); experiment: mobility shift assay
T8 construct: purchased Carna Biosciences

TXK = molecular target: T9, TXK (Homo sapiens, UniProt P42681); experiment: mobility shift assay
T9 construct: purchased Carna Biosciences

PHKG1 = molecular target: T10, PHKG1 (Homo sapiens, UniProt Q16816); experiment: mobility shift assay
T10 construct: purchased Carna Biosciences

SPHK2 = molecular target: T11, SPHK2 (Homo sapiens, UniProt Q9NRA0); experiment: mobility shift assay
T11 construct: purchased Carna Biosciences

WNK1 = molecular target: T12, WNK1 (Homo sapiens, UniProt Q9H4A3); experiment: mobility shift assay
T12 construct: purchased Carna Biosciences

DYRK1A = molecular target: T13, DYRK1A (Homo sapiens, UniProt Q13627); experiment: mobility shift assay
T13 construct: purchased Carna Biosciences

BTK = molecular target: T14, BTK (Homo sapiens, UniProt Q06187); experiment: mobility shift assay
T14 construct: purchased Carna Biosciences

RET(Y791F) = molecular target: T15, RET(Y791F) (Homo sapiens, UniProt P07949, Y791F); experiment: mobility shift assay
T15 construct: purchased Carna Biosciences

ACK = molecular target: T16, ACK (Homo sapiens, UniProt Q07912); experiment: mobility shift assay
T16 construct: purchased Carna Biosciences

RON = molecular target: T17, RON (Homo sapiens, UniProt Q04912); experiment: mobility shift assay
T17 construct: purchased Carna Biosciences

MST2 = molecular target: T18, MST2 (Homo sapiens, UniProt Q13188); experiment: mobility shift assay
T18 construct: purchased Carna Biosciences

PDGFRα(V561D) = molecular target: T19, PDGFRα(V561D) (Homo sapiens, UniProt P16234, V561D); experiment: mobility shift assay
T19 construct: purchased Carna Biosciences

MAP2K7_Cascade = molecular target: T20, MAP2K7_Cascade (Homo sapiens, UniProt O14733); experiment: mobility shift assay
T20 construct: purchased Carna Biosciences

CaMK2γ = molecular target: T21, CaMK2γ (Homo sapiens, UniProt Q13555); experiment: mobility shift assay
T21 construct: purchased Carna Biosciences

YES(T348I) = molecular target: T22, YES(T348I) (Homo sapiens, UniProt P07947, T348I); experiment: mobility shift assay
T22 construct: purchased Carna Biosciences

FYN(isoform b) = molecular target: T23, FYN(isoform b) (Homo sapiens, UniProt P06241); experiment: mobility shift assay
T23 construct: purchased Carna Biosciences

MET(D1228H) = molecular target: T24, MET(D1228H) (Homo sapiens, UniProt P08581, D1228H); experiment: mobility shift assay
T24 construct: purchased Carna Biosciences

EGFR(d746-750/T790M) = molecular target: T25, EGFR(d746-750/T790M) (Homo sapiens, UniProt P00533, DEL746-750/T790M); experiment: mobility shift assay
T25 construct: purchased Carna Biosciences

RET(S891A) = molecular target: T26, RET(S891A) (Homo sapiens, UniProt P07949, S891A); experiment: mobility shift assay
T26 construct: purchased Carna Biosciences

EPHB1 = molecular target: T27, EPHB1 (Homo sapiens, UniProt P54762); experiment: mobility shift assay
T27 construct: purchased Carna Biosciences

PAK1 = molecular target: T28, PAK1 (Homo sapiens, UniProt Q13153); experiment: mobility shift assay
T28 construct: purchased Carna Biosciences

EPHA1 = molecular target: T29, EPHA1 (Homo sapiens, UniProt P21709); experiment: mobility shift assay
T29 construct: purchased Carna Biosciences

ALK(C1156Y) = molecular target: T30, ALK(C1156Y) (Homo sapiens, UniProt Q9UM73, C1156Y); experiment: mobility shift assay
T30 construct: purchased Carna Biosciences

HER2 = molecular target: T31, HER2 (Homo sapiens, UniProt P04626); experiment: mobility shift assay
T31 construct: purchased Carna Biosciences

PAK5 = molecular target: T32, PAK5 (Homo sapiens, UniProt Q9P286); experiment: mobility shift assay
T32 construct: purchased Carna Biosciences

EPHA3 = molecular target: T33, EPHA3 (Homo sapiens, UniProt P29320); experiment: mobility shift assay
T33 construct: purchased Carna Biosciences

FGFR3 = molecular target: T34, FGFR3 (Homo sapiens, UniProt P22607); experiment: mobility shift assay
T34 construct: purchased Carna Biosciences

EGFR = molecular target: T35, EGFR (Homo sapiens, UniProt P00533); experiment: mobility shift assay
T35 construct: purchased Carna Biosciences

TYK2 = molecular target: T36, TYK2 (Homo sapiens, UniProt P29597); experiment: mobility shift assay
T36 construct: purchased Carna Biosciences

MUSK = molecular target: T37, MUSK (Homo sapiens, UniProt O15146); experiment: mobility shift assay
T37 construct: purchased Carna Biosciences

PKCβ1 = molecular target: T38, PKCβ1 (Homo sapiens, UniProt P05771); experiment: mobility shift assay
T38 construct: purchased Carna Biosciences

CLK2 = molecular target: T39, CLK2 (Homo sapiens, UniProt P49760); experiment: mobility shift assay
T39 construct: purchased Carna Biosciences

PKCη = molecular target: T40, PKCη (Homo sapiens, UniProt P24723); experiment: mobility shift assay
T40 construct: purchased Carna Biosciences

CDK7/CycHMAT1 = CDK7/CycHMAT1 (Homo sapiens, UniProt P50613); experiment: mobility shift assay; parameters: purchased Carna Biosciences
Chain of CDK7/CycHMAT1 (P50613 whole entry): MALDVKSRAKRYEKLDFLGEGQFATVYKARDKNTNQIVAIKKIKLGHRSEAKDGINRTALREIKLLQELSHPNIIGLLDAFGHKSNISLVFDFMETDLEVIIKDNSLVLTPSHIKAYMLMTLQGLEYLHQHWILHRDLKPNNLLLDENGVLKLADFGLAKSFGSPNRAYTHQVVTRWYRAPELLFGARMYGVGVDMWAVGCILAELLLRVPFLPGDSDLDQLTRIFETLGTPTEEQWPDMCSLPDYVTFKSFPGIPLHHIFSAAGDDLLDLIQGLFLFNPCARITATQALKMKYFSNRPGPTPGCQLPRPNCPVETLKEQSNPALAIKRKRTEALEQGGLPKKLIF
Chain of CDK7/CycHMAT1 (P51946 whole entry partner): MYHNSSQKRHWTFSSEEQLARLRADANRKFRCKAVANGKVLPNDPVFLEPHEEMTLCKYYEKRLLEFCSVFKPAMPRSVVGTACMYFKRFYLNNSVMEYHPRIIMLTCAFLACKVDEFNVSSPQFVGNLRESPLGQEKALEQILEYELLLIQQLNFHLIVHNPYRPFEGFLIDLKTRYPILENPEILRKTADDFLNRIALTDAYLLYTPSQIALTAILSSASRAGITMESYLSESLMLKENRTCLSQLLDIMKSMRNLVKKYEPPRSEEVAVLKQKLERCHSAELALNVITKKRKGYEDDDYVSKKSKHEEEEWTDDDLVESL
Chain of CDK7/CycHMAT1 (P51948 whole entry partner): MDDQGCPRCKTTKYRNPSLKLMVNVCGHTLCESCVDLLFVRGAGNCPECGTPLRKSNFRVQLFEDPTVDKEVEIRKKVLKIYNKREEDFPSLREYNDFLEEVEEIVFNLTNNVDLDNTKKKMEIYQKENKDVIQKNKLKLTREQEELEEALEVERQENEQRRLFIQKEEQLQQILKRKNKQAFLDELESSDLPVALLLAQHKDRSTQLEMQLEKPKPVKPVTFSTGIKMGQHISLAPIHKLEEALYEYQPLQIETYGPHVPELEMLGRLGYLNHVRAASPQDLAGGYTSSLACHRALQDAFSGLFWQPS

T12 sequence (Q9H4A3 whole entry): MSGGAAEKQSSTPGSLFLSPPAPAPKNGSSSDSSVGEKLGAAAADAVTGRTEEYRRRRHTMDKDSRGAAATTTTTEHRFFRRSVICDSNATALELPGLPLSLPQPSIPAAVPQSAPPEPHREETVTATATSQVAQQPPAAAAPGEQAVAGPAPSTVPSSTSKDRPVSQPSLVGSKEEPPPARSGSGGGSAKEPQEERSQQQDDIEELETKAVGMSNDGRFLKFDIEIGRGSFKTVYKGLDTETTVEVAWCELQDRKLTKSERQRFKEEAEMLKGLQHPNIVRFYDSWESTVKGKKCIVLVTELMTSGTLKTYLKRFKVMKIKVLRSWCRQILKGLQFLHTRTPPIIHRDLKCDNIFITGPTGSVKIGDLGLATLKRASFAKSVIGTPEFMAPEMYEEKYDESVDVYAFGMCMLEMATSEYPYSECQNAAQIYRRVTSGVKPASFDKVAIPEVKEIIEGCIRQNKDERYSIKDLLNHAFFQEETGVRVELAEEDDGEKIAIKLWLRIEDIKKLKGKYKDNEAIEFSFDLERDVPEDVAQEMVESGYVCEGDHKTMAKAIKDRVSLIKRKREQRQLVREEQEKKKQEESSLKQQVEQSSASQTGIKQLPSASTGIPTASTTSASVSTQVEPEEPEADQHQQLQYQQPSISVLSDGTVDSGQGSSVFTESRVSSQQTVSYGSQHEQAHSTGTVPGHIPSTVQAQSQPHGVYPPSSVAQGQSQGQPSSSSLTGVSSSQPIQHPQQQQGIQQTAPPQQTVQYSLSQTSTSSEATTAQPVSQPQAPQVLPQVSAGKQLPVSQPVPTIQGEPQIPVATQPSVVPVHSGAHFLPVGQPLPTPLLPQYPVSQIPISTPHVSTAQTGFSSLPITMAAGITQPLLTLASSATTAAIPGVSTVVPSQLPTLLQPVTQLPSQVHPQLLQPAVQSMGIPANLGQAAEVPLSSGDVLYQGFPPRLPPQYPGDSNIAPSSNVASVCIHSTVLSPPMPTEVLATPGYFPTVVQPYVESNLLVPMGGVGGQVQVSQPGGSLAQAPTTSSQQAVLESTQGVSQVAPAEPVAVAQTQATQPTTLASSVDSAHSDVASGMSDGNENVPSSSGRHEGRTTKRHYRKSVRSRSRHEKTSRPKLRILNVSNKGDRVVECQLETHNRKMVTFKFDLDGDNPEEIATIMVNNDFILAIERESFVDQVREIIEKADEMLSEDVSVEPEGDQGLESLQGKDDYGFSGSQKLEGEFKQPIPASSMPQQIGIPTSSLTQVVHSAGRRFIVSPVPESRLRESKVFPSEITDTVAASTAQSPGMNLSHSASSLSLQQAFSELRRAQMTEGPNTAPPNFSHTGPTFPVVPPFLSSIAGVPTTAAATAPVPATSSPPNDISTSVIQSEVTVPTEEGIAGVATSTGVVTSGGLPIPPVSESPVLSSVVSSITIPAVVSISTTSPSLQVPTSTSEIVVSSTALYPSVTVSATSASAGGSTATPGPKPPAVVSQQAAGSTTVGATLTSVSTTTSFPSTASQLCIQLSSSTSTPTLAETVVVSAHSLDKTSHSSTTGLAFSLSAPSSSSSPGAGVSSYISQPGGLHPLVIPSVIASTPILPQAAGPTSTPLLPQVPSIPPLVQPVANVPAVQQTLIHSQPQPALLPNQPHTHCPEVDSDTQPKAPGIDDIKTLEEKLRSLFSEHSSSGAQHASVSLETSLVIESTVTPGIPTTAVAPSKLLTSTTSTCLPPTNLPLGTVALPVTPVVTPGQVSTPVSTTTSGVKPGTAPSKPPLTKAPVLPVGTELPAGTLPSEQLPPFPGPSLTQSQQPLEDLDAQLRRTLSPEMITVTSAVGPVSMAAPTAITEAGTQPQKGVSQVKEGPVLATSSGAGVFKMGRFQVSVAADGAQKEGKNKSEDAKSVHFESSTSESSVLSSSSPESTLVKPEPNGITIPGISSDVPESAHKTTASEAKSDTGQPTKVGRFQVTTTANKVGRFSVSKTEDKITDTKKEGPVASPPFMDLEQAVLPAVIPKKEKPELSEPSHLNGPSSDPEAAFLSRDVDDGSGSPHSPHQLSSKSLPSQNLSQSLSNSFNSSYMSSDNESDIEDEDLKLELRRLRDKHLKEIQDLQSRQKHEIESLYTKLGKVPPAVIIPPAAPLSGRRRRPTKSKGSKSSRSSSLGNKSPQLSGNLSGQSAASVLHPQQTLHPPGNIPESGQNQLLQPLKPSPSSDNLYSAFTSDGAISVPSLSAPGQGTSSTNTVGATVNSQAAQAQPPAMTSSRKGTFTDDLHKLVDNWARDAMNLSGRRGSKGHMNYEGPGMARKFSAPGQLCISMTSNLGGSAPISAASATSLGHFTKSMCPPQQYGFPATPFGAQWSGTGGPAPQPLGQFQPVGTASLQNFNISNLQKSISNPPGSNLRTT
T35 sequence (P00533 25-1210): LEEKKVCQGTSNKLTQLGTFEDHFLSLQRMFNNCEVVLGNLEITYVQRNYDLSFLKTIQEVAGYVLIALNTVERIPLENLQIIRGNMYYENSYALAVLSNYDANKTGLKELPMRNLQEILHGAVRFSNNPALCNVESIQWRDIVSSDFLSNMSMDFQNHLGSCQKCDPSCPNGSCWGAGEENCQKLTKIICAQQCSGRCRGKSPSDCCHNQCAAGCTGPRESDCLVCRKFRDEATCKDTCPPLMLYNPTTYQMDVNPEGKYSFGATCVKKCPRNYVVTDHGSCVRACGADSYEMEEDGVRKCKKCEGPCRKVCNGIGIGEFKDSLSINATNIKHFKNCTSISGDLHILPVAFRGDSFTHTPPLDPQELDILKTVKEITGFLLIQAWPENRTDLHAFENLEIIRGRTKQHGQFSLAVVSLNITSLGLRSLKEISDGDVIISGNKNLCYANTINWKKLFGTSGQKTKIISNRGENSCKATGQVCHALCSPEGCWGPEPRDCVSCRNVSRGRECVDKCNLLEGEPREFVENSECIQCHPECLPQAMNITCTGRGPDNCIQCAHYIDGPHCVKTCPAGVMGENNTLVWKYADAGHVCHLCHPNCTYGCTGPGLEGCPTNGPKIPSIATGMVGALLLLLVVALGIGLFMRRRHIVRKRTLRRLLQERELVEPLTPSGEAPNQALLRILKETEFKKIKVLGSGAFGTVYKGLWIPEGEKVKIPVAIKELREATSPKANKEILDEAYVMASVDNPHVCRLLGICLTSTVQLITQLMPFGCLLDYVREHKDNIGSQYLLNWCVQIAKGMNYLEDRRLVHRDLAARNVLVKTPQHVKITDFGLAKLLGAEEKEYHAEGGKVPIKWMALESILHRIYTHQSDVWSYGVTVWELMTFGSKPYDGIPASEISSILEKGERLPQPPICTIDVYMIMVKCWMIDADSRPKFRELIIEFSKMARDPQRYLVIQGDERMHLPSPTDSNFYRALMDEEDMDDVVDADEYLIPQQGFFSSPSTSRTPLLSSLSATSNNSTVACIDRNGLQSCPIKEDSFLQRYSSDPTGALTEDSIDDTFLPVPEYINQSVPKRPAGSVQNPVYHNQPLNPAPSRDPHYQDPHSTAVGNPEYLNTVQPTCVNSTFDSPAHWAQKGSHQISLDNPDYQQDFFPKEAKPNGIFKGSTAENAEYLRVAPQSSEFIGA
T4 sequence (P49759 whole entry): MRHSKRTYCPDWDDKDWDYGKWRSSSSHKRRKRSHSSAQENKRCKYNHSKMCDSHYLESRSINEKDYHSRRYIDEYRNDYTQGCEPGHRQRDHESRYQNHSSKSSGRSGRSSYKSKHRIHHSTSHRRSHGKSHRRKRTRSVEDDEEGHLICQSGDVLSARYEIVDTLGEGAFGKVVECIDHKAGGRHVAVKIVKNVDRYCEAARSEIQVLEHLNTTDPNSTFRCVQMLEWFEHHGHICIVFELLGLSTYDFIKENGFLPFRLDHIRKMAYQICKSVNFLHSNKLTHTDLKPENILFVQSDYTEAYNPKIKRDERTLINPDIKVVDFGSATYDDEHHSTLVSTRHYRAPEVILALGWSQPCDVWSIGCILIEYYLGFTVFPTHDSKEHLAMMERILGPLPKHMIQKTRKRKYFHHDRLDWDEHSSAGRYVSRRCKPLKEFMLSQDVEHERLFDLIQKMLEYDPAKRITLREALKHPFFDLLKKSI

C[C@@H]1CC[C@H]2C(C)(C)CCC[C@]2(C)c2c1oc1c(C=O)c(O)c(O)cc21 [LG-1, liphagal] showed an inhibition at 10 µM (MST3) of 62.7%, an inhibition at 10 µM (SPHK1) of 59.8% and an inhibition at 10 µM (IKKα) of 34.4%. For the same compound, the inhibition at 10 µM (CLK1) was 30.1%, the inhibition at 10 µM (SRPK1) was 28.2% and the inhibition at 10 µM (p70S6Kβ) was 26.4%. For the same compound, the inhibition at 10 µM (MAP2K3_Cascade) was 25.6%, the inhibition at 10 µM (FAK) was 24.5% and the inhibition at 10 µM (TXK) was 23.1%. The inhibition at 10 µM (PHKG1) was 21.7%, the inhibition at 10 µM (SPHK2) was 17.4% and the inhibition at 10 µM (WNK1) was 17.3%. It also gave an inhibition at 10 µM (DYRK1A) of 10.5%, an inhibition at 10 µM (BTK) of 10.3% and an inhibition at 10 µM (RET(Y791F)) of 9.9%. The inhibition at 10 µM (ACK) was 8.4%, the inhibition at 10 µM (RON) was 7.8% and the inhibition at 10 µM (MST2) was 7.6%. For the same compound, the inhibition at 10 µM (PDGFRα(V561D)) was 7.1%, the inhibition at 10 µM (MAP2K7_Cascade) was 5.5% and the inhibition at 10 µM (CaMK2γ) was 3.8%. For the same compound, the inhibition at 10 µM (YES(T348I)) was 3.7%, the inhibition at 10 µM (FYN(isoform b)) was 3.1% and the inhibition at 10 µM (MET(D1228H)) was 2.9%. The inhibition at 10 µM (EGFR(d746-750/T790M)) was 2.5%, the inhibition at 10 µM (RET(S891A)) was 2.1% and the inhibition at 10 µM (EPHB1) was 1.7%. The inhibition at 10 µM (PAK1) was 0.5%, the inhibition at 10 µM (EPHA1) was 0.5% and the inhibition at 10 µM (ALK(C1156Y)) was 0.2%. The inhibition at 10 µM (HER2) was -1.6%, the inhibition at 10 µM (PAK5) was -2.5% and the inhibition at 10 µM (EPHA3) was -2.8%. For the same compound, the inhibition at 10 µM (FGFR3) was -4.4%, the inhibition at 10 µM (EGFR) was -4.4% and the inhibition at 10 µM (TYK2) was -6.5%. The inhibition at 10 µM (MUSK) was -8.4%, the inhibition at 10 µM (PKCβ1) was -18% and the inhibition at 10 µM (CLK2) was -25.5%. For the same compound, the inhibition at 10 µM (PKCη) was -34.3%, the inhibition at 10 µM (CDK7/CycHMAT1; CDK7/CycHMAT1) was 85.8% and the “inhibitory activity against CDK7” value (CDK7/CycHMAT1; in words, 10 μM) was “Potent inhibitory activity”.
